In publication PMC4694659, “Biochemical Characterization of Medaka (Oryzias latipes) Transglutaminases, OlTGK1 and OlTGK2, as Orthologues of Human Keratinocyte-Type Transglutaminase” (PLoS ONE, 2015):

What was measured:
[1] = biological target: T1, OlTGK1 (Oryzias latipes, UniProt A0A0S3Q197); assay: microplate transamidation: incorporation of bio-Cd into coated beta-casein, streptavidin-peroxidase read-out; format: biochemical; conditions: amine acceptor substrate; co-substrate beta-casein (coated); CaCl2; Tris-Cl pH 8.0; 25 °C; 20 min; labelled compound
T1 construct: full-length ORF (2067 bp, 688 residues), N-terminal hexahistidine tag, pET24d, E. coli BL21(DE3)LysS; cDNA cloned from embryonic medaka cDNA library (fish kept: Cab strain)
T1 sequence (A0A0S3Q197 1-688): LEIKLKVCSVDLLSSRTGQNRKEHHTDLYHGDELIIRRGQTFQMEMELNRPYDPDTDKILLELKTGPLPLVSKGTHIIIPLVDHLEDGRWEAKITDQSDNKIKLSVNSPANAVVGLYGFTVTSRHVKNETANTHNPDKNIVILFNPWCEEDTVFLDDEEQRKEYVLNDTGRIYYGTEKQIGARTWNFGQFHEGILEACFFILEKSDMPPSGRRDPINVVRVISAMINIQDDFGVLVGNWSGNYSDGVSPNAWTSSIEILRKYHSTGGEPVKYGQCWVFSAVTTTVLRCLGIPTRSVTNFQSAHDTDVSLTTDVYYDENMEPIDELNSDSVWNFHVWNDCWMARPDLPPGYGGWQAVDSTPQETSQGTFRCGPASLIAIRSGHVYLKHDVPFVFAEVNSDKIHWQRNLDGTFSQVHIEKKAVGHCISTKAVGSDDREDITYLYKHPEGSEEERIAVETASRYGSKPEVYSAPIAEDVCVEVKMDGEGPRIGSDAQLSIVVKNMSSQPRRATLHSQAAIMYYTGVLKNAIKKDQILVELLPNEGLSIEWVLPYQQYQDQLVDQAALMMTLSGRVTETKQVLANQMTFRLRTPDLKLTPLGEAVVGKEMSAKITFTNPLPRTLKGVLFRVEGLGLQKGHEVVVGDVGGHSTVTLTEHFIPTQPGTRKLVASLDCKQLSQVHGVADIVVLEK

[2] = biological target: T2, OlTGK2 (Oryzias latipes, UniProt A0A0S3Q1B1); assay: as above; format: biochemical; conditions: amine acceptor substrate; co-substrate beta-casein (coated); CaCl2; Tris-Cl pH 8.0; 25 °C; 20 min; labelled compound
T2 construct: full-length ORF (2340 bp, 778 residues as printed), N-terminal hexahistidine tag, pET24d, E. coli BL21(DE3)LysS; NBRP cDNA clone olsp48d24 (fish kept: Cab strain)
T2 sequence (A0A0S3Q1B1 1-779): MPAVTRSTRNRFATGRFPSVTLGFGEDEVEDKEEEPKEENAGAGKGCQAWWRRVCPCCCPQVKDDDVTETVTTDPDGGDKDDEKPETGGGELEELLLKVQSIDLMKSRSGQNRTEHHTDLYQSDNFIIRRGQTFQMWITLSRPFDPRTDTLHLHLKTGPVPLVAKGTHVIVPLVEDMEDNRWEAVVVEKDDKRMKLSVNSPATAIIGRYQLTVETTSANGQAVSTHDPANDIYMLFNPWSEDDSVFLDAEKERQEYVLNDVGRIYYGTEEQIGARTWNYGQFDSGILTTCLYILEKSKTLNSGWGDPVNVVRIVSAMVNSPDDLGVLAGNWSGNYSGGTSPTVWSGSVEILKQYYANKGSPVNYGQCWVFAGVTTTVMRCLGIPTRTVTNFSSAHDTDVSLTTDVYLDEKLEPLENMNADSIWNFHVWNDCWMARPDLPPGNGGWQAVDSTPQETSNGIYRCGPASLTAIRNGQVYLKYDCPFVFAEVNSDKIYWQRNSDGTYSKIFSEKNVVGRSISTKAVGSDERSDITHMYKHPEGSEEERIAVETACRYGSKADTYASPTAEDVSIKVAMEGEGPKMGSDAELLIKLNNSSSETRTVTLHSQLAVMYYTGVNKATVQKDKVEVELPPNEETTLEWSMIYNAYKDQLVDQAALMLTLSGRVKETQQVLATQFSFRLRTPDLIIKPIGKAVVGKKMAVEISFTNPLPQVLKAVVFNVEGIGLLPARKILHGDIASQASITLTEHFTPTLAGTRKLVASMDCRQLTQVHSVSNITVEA

## NCCCCCNC(=O)CCCC[C@@H]1SC[C@@H]2NC(=O)N[C@@H]21 [bio-Cd]
[1]
  microplate transamidation: incorporation of bio-Cd into coated beta-casein, stre: apparent incorporation was observed in the presence of three-different amounts of OlTGK1 and OlTGK2
[2]
  microplate transamidation: incorporation of bio-Cd into coated beta-casein, stre: apparent incorporation was observed in the presence of three-different amounts of OlTGK1 and OlTGK2
